From US6780641B2, “Immortalized human microglia cell line” (University of British Columbia, priority 2000, dated 2004)
“Also recorded” adds a separate entry of the source.

How the values were obtained:
[1] = tested on: HMO6.A1 cells; experiment: Fura-2 Ca2+ fluorescence in HMO6.A1 cells; format: cell-based, human; conditions: ATP 100 μM; ionomycin 10 μM after ATP perfusion; n=7 cells
Method: The cultured HMO6.Al cells were loaded for 25 min with the Ca^2+ indicator fura-2-acetoxymetethylester (fura-2AM). The dye was applied with pleuronic acid (both at concentrations of 1 μM) to normal physiological solution (PSS) at room temperature (20-22° C.). Following a 5 min wash in dye-free solution, the coverslips were placed on the stage of a Zeiss Axiovert inverted microscope containing a ×40 quartz objective lens. Alternating excitation wavelengths (340/380 nm) of UV light were applied at intervals of 8 s and fluorescence signals were obtained at 510 nm of emission light (bandwidth of 4 nm) from 8-20 cells in the field of view. Signals were acquired from a digital camera (DVC-1310, DVC Co., Austin, Tex.) and were processed using an imaging system (Empix, Mississauga, ON) to determine ratios of the 340 nm and 380 nm intensities which have been used as quantitative measures of fluorescence levels in this work.
All studies were done at room temperature (20-22° C.) and values obtained from multiple cells are reported as mean ±SEM with statistical significance for p≦0.05 using the Student's t-test.
The purinergic agonist ATP (at 100 μM) was applied to HMO6.A1 cells using calcium sensitive fluorescence microscopy. The results from a representative experiment are presented by FIGS. 3A and 3B which show an ATP-induced increase in [Ca^2+]i from n=7 cells. […]

[2] = tested on: HMO6.A1 cells; experiment: RT-PCR analysis of gene expression in agent stimulated HMO6.A1 cells; format: cell-based, human; conditions: for P2Y2 receptor expression / B7-2 mRNA expression: HMO6.A1, RT-PCR; for B7-2 mRNA expression: 24 hr incubation; for Stimulated HMO6 cell expressed active substance(s): RT-PCR, agent stimulated HMO6 cells
Description: The information of Table E1 is provided merely as a convenience to the reader and utilizes conventional gene sequences.
Sense and antisense primers of each primer pair given by Table E1 were set at a different exon, respectively, to avoid DNA contamination. To assess the character of HMO6.A1 cells, the expression of cytokines (IL-1β, -2, -3, -4, -5, -6, -7, -8, -9, -10, -11, -12, -13, -15, and TNF-α), chemokines (macrophage inflammatory protein (MIP)-1α, MIP-1β, and monocyte chemoattractant protein (MCP)-1) was examined by RT-PCR. Total RNA was extracted using Trizol reagent (GIBCO-BRL, Gaithersburg, Md.). Complimentary DNA (cDNA) templates from each sample were prepared from 2 μg of total RNA primed with oligo dT primers (Pharmacia, Gaithersburg, Md.) using 400 units of MMLV reverse transcriptase (GIBCO-BRL) followed by 25 PCR amplification cycles (94° C. for 30 seconds, annealing at 60° C. for 60 seconds, and extension at 72° C. for 90 seconds). This cycle number allowed a linear cDNA dose-response. Glyceraldehyde-3-phosphate dehydrogenase (G3PDH) was used as a reaction standard [Ercolani et al., J. Biol. Chem. 263: 15335-15341 ([…])].
To confirm the purity of cell preparation, cDNA from microglia-enriched cultures were amplified for B7-2 (CD86, for microglia); GFAP (a cell type-specific marker for astrocytes); myelin basic protein (MBP, for oligodendrocytes); and neurofilament-M (NF-M, for neurons). For characterization of HMO6.A1 cells, mRNA expression of marker proteins specific for each cell type was also investigated. Gene expression of CD68, P2Y1 purinergic receptor (P2Y1R), P2Y2R, CXCR4 which are expressed in embryonic human microglia (HM) was also examined in HMO6.A1 cells. […] of each PCR product was analyzed by 1.5% agarose gel electrophoresis. Authentic bands were determined by selective enzyme digestion.
[…] LPS at 100 ng/ml was used in microglial cultures since LPS is a potent activator of microglia [Gebicke-Haeter et al., J. Neurosci. 9: 187-194 (1989); Suzumura et al., Brain Res. 545: 301-306 (1991)].

[3] = tested on: embryonic human microglia; experiment: GM-CSF stimulated proliferation of embryonic human microglia; format: cell-based; conditions: GM-CSF 8 μg/ml for 9-12 days
Method: It is also desirable that, for the last part of this time, microglia are exposed to granulocyte macrophage colony stimulating factor (GM-CSF) at final concentration of 8 ug/ml for 9-12 days with a medium change every 3 days. GM-CSF treatment stimulated proliferation of microglia results in a 3-4 fold increase in microglial population.
As illustrated by FIG. 1, an amphotropic replication-incompetent retroviral vector encoding v-myc oncogene (transcribed from mouse leukemia virus LTR plus neomycin-resistant gene transcribed from a SV40 early promotor) was used to infect human microglia inducing propagation of immortalized human microglial cell lines. This amphotropic vector, PASK 1.2, was generated using the ecotropic retroviral vector encoding v-myc (obtained from the American Type Culture Collection, Rockville, Md.) to infect PA318 amphotropic packaging cell line. Microglia were exposed to granulocyte macrophage colony stimulating factor (GM-CSF) at final concentration of 8 μg/ml for 9-12 days with medium change every 3 days. GM-CSF treatment stimulated proliferation of microglia resulting in 3-4 folds increase in population. Microglia treated with GM-CSF for 9-12 days were subjected to retrovirally mediated transduction of v-myc by PASK 1.2 construct and subsequent cloning.

[4] = tested on: embryonic human microglia (HM); experiment: RT-PCR analysis of gene expression in embryonic human microglia (HM) after Aβ25-35/LPS; format: cell-based; conditions: 6 hr
[5] = tested on: HMO6.A1 cells; experiment: ELISA of cytokines/chemokines released from HMO6.A1 cells; format: cell-based, human; conditions: for MIP-1α amount of release / levels of IL-8 in the supernatant: HMO6.A1, 48 hours; for levels of IL-8 in the supernatant: versus non-treated controls
Method: (§1) Production of TNF-α, IL-1β, IL-6, IL-8 or MIP-1α in normal human microglial cells or HMO6.A1 cells was determined in spent culture supernatants using ELISA kits specific for human TNF-α, IL-1β, IL-6, IL-8 or MIP-1α (R&D Systems, capable of detecting TNF-α at 4.4 pg/ml, IL-1β at 1 pg/ml, IL-6 at 0.70 pg/ml, IL-8 at 10 pg/ml and MIP-1α at 10 pg/ml). At the end of each experiment, culture supernatants were collected, centrifuged, and stored at −70° C.
(§2) FIGS. 6A-6E are graphs presenting ELISA analyses of cytokines and chemokines released from normal human microglia and HMO6 immortalized human microglia cell line. Cells were plated in 6-well plates, stimulated for 48 hours with or without 20 ug/ml β-amyloid or 10 ng/ml LPS, and then cytokine/chemokine production in spent media was measured. Values represent mean±SEM from 3 experiments.

[6] = tested on: normal human microglial cells; experiment: ELISA of cytokines/chemokines released from normal human microglia (HM); format: cell-based; conditions: for IL-6 levels in the culture supernatant: cell type (HM or HMO6.A1) not given; for levels of IL-8 in the supernatant: versus non-treated controls
Method: as §1, §2

[7] = HMO6, treatment time not stated

Nc1ncnc2c1ncn2[C@@H]1O[C@H](COP(=O)(O)OP(=O)(O)OP(=O)(O)O)[C@@H](O)[C@H]1O [ATP]
[Ca2+]i response [1]: increase; also recorded: rapid and transient

C[C@H](CCC(=O)O)C[C@H](C)C[C@H](C)C(=O)/C=C(\O)[C@H](C)C[C@H](C)C/C=C/[C@@H](C)[C@@H](O)[C@@H](C)[C@@H](O)C[C@@H]1CC[C@@](C)([C@H]2CC[C@@](C)([C@@H](C)O)O2)O1 [ionomycin]
[Ca2+]i response [1]: considerably larger than the ATP-induced response

GM-CSF: granulocyte-macrophage colony-stimulating factor (GIBCO-BRL)
P2Y2 receptor expression [2]: expressed
B7-2 mRNA expression [2]: not
increase in microglial population [3]: 3-4 fold

IL-1β: Recombinant human IL-1β (10 ng/ml, R&D Systems)
P2Y2 receptor expression [2]: expressed
B7-2 mRNA expression [2]: not
Stimulated HMO6 cell expressed active substance(s) [2]: None

NH2-GSNKGAIIGLM-COOH (H-GSNKGAIIGLM-OH) [Aβ25-35]
CXCR4 expression ([2]; HMO6.A1, 6 hr): increased
IL-1β expression ([2]; HMO6.A1, 6 hr): no change
IL-6 expression ([2]; HMO6.A1, 6 hr): no change
IL-8 mRNA expression ([2]; HMO6.A1, 6 hr): elevated
IL-10 expression ([2]; HMO6.A1, 6 hr): not detected
IL-12 expression ([2]; HMO6.A1, 6 hr): elevated
MCP mRNA expression ([2]; HMO6.A1, 6 hr): elevated
MIP-1α mRNA expression ([2]; HMO6.A1, 6 hr): not expressed
MIP-1β expression ([2]; HMO6.A1, 6 hr): No change
TNF-α expression ([2]; HMO6.A1, 6 hr incubation): not induced
TNF-α expression ([2]; HMO6.A1, after 24 hr): induced
TNF-α expression ([2]; HMO6.A1, after 24 hr, listed as Aβ): detected; also recorded: induced
Stimulated HMO6 cell expressed active substance(s) ([2]; Elevated IL-12 expression): Elevated IL-12
Stimulated HMO6 cell expressed active substance(s) ([2]; TNF-α expression): TNF-α
IL-1β expression [4]: slightly increased
IL-4 expression [4]: not recognized
IL-8 mRNA [4]: up-regulated
IL-10 expression [4]: increased
IL-12 expression [4]: elevated
IL-13 expression [4]: not recognized
MCP mRNA [4]: up-regulated
MIP-1α mRNA [4]: up-regulated
MIP-1β mRNA [4]: up-regulated
TNF-α expression [4]: markedly elevated
MIP-1α amount of release [5]: very low
TNF-α production (ELISA) ([5]; HMO6.A1, 48 hours stimulation, spent media): marked increase
levels of IL-8 in the supernatant [5]: greater
IL-6 levels in the culture supernatant ([6]; 48 hours stimulation): not increased
MIP-1α levels ([6]; HM, 48 hours): elevated
release of IL-1β into culture medium ([6]; HM, 48 hours stimulation): demonstrated
TNF-α production (ELISA) ([6]; HM, 48 hours stimulation, spent media): marked increase
levels of IL-8 in the supernatant ([6]; HM, 48 hours): greater

TNF-α
Expression of MIP-1α [2, 7]: newly induced
Expression of TNF-α [2, 7]: newly induced
MIP-1α expression ([2]; HMO6.A1, 24 hr treatment): detected; also recorded: induced
P2Y2 receptor expression [2]: induced; also recorded: expressed
B7-2 mRNA expression [2]: induced; also recorded: expressed
TNF-α gene expression ([2]; HMO6.A1, treatment for 4 hr): recognized; also recorded: induced
Stimulated HMO6 cell expressed active substance(s) ([2]; MIP-1α expression): MIP-1α
Stimulated HMO6 cell expressed active substance(s) ([2]; TNF-α expression): TNF-α

lipopolysaccharide [LPS]
CXCR4 expression ([2]; HMO6.A1, 6 hr): increased
TNF-α expression ([2]; HMO6.A1, 6 hr incubation): not induced
P2Y2 receptor expression [2]: expressed
B7-2 mRNA expression [2]: not
TNF-α expression ([2]; HMO6.A1, after 24 hr): induced
MIP-1α amount of release [5]: very low
levels of IL-8 in the supernatant [5]: greater
IL-6 levels in the culture supernatant ([6]; 48 hours stimulation): increased
release of IL-1β into culture medium ([6]; HM, 48 hours stimulation): demonstrated
levels of IL-8 in the supernatant ([6]; HM, 48 hours): greater

B1: IFN-γ: recombinant human IFN-γ (500 IU/ml, LG Chem) (protein, UniProt P01579 24-161, looked up)
Interferon gamma: QDPYVKEAENLKKYFNAGHSDVADNGTLFLGILKNWKEESDRKIMQSQIVSFYFKLFKNFKDDQSIQKSVETIKEDMNVKFFNSNKKKRDDFEKLTNYSVTDLNVQRKAIHELIQVMAELSPAAKTGKRKRSQMLFRG
P2Y2 receptor expression [2]: expressed
B7-2 mRNA expression [2]: not
